Here are results for five molecules from patent publication US20120214186A1, “METHODS AND COMPOSITIONS FOR DETECTING AND QUANTIFYING sAPPbeta” (priority 2006, published 2012).

Data set [1] deals with T1, BACE1 (Homo sapiens, UniProt P56817).
T1 construct: expressed in transfected cells
Nature of the data set: Cell-based BACE1 assay (sAPPβ ELISA-SEAP), SY5Y-BACEGFP-SEAPAPPwt stable cells. The settings on record: 6 hours, 96-well; TAPI-2 100 mM, BACE inhibitor IV 5 mM, AEBSF 500 mM, Cpd E 20 nM. How it is done: […] cells expressing BACEGFP and SEAPAPPwt were grown on standard cell culture plates in DMEM (Invitrogen) supplemented with 10% fetal bovine serum, 1% Pen/Strep/Glutamine, and 250 μg/ml zeocin. SEAPAPPwt is cleaved by BACE1 (β-secretase) as well as a secretase to release large extracellular fragments sAPPβ and sAPPα, respectively. Cell culture media containing these fragments was harvested and SEAP-sAPPβ was captured using 96-well plates coated with the sAPPβ specific antibody (sβwt). The ELISA plate was then incubated with the fluorescent alkaline phosphatase substrate 4-MUP (Sigma) at a final concentration of 30 μM (in 100 mM glycine, 1 mM MgCl2, 1 mM ZnCl2 at pH 9.8) for 1 hour before detection (excitation: 360 nm, emission: 449 nm).
SY5Y-BACEGFP-SEAPAPPwt stable cells were grown to 100% confluence on 96-well plates in quadruplicate and incubated for 6 hours with DMSO, TAPI-2 ([…]), RACE inhibitor IV ([…]), AEBSF ([…]), or Cpd E (20 nM) in […] of conditioned media (DMEM (invitrogen) supplemented with 10% fetal bovine serum, 1% Pen/Strep/Glutamine, and 250 μg/ml zeocin).
A sAPPβ ELISA-SEAR assay was conducted using […] of media.
Media was collected after 6 hrs incubation and […] was used in the BACE1 assay as described above.

Data set [2] deals with SY5Y-BACEGFP-SEAPAPPwt stable cells. Conditions: at concentrations used; data not shown.
The next data set deals with HEK293-APPNFEV cells. Conditions: read-out: reported IC50; cited from earlier work.
The target of data set [3] is T2, BACE1 (Mus musculus, UniProt P56818).
T2 construct: host or cells: mouse model of AD
Conditions: mouse model of AD; cited from earlier work.

The conditions of data set [4]: p-glycoprotein inhibitor required to increase transport; cited from earlier work.

T1 sequence (P56817 46-501): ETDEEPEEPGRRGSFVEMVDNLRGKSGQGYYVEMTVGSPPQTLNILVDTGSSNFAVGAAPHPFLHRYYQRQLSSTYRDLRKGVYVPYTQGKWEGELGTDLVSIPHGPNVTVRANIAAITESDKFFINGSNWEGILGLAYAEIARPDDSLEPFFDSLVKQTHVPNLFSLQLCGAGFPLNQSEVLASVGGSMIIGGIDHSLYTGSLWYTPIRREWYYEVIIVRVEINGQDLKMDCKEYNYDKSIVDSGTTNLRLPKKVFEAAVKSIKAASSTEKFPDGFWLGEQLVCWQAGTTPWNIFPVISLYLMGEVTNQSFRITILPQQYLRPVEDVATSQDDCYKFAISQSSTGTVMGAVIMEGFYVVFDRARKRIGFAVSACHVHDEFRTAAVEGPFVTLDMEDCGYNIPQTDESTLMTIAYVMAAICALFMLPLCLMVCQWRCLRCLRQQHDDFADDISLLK
T2 sequence (P56818 46-501): as the sequence (P56817 46-501) above, with P6S, V162I, L165I, S180T, V182A, I340V, L393A, Q443H counted along it

`CC(C)C[C@H](CC(=O)NO)C(=O)N[C@H](C(=O)N[C@@H](C)C(=O)NCCN)C(C)(C)C` [TAPI-2]: the “effect on sAPPβ” value on BACE1 [1] is “no effect”.
The term IC50 denotes the concentration that inhibits the measured activity by half. Take `C[C@@H](NC(=O)c1cc(C(=O)N[C@@H](Cc2ccccc2)[C@H](O)CNC2CC2)cc(N(C)S(C)(=O)=O)c1)c1ccccc1` [BACE inhibitor IV]: the cellular toxicity result in data set [2] is recorded as “do not exhibit significant cellular toxicity”. Also, the concentration for half-maximal inhibition (IC50) with HEK293-APPNFEV cells is 29 nM.
Consider `NCCc1ccc(S(=O)(=O)F)cc1` [AEBSF], for which the “effect on sAPPβ” value at BACE1 [1] is listed as “dramatically reduced”. Moreover, the cellular toxicity result in data set [2] is on record as “do not exhibit significant cellular toxicity”.
Consider `CCNc1cc(C(=O)N[C@@H](Cc2ccccc2)[C@H](O)CNCc2cccc(C(F)(F)F)c2)c(F)c(N2CCCCS2(=O)=O)c1` [GSK188909], for which the in vivo efficacy result on BACE1 [3] is given as “in vivo efficacy”. Moreover, the brain penetration result in data set [4] is recorded as “low brain penetration”.
Turning to `C[C@H](NC(=O)Cc1cc(F)cc(F)c1)C(=O)N[C@H]1N=C(c2ccccc2)c2ccccc2N(C)C1=O` [CpdE], the “effect on sAPPβ” value at BACE1 [1] is “no effect”.
